Laboratory results from ChEMBL document CHEMBL4330083, “Synthesis and evaluation of isoprenylation-resveratrol dimer derivatives against Alzheimer's disease” (Eur J Med Chem, 2019).
Activity calls are given as the source filed them. No cut-off for these calls is given here.

Legend:
Homo sapiens [1] = species on record: Homo sapiens; assay: Selectivity ratio of IC50 for human MAO-A to IC50 for human MAO-B
PC-12 [2] = assay: Neuroprotection against H2O2-induced oxidative damage in rat PC12 cells assessed as early apoptotic cells at 5 uM after 24 hrs in presence of H2O2 by annexin V-FITC/propidium iodide staining based flow cytometric analysis (reference value: 29.3%); assay type: functional
[3] = Antioxidant activity assessed as ABTS radical cation scavenging activity by measuring trolox equivalents after 150 mins; assay type: functional
[4] = Antioxidant activity assessed as ferric ion reduction by measuring trolox equivalents after 3 to 5 mins by FRAP assay; assay type: functional
[5] = Neuroprotection against H2O2-induced inflammation in […] cells assessed as reduction in ROS production by measuring mean fluorescence intensity at 10 uM after 18 hrs by DCFH-DA staining-based flow cytometric analysis (reference value: 20004); assay type: functional
[6] = molecular target: T1, Amine oxidase [flavin-containing] A (Homo sapiens, UniProt P21397); assay: Inhibition of human MAO-A preincubated for 15 mins followed by p-tyramine substrate addition and measured after 20 mins by Amplex red reagent based fluorescence assay
T1 sequence (P21397 whole entry): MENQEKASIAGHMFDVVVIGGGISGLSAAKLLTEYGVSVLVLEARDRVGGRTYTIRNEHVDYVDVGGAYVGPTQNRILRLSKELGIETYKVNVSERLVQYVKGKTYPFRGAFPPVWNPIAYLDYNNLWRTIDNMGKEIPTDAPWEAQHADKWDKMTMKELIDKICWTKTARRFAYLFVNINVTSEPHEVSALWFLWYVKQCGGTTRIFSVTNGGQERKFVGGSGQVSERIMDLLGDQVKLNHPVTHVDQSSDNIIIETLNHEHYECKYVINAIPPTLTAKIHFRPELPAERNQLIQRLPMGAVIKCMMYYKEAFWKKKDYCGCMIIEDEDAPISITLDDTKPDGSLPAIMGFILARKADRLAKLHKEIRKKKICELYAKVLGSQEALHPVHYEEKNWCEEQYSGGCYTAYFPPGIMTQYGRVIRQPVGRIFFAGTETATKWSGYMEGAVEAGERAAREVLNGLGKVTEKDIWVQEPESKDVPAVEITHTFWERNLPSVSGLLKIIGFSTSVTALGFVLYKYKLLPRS

[7] = molecular target: T2, Amine oxidase [flavin-containing] B (Homo sapiens, UniProt P27338)
T2 sequence (P27338 whole entry): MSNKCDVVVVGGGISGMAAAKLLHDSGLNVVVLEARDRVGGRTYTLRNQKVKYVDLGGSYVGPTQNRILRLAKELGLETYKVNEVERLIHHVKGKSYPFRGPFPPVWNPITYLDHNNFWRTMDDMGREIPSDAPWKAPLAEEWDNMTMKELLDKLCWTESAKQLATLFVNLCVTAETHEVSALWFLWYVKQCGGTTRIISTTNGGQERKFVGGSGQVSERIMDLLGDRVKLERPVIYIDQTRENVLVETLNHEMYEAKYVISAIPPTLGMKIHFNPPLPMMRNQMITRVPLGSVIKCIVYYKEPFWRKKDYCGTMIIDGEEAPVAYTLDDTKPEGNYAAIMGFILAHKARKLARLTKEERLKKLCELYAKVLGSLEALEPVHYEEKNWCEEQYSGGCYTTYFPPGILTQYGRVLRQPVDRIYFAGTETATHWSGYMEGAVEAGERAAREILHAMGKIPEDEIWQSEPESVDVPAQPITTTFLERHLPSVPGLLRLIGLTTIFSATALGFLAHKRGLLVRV

PC-12 [8] = assay: Neuroprotection against H2O2-induced oxidative damage in rat PC12 cells assessed as necrotic cells at 5 uM after 24 hrs in presence of H2O2 by annexin V-FITC/propidium iodide staining based flow cytometric analysis (reference value: 0.4%); assay type: functional
PC-12 [9] = assay: Neuroprotection against oligomycin A-induced cell death in rat PC12 cells preincubated for 4 hrs followed by oligomycin A addition measured after 24 hrs by MTT assay; assay type: functional, cell-based
[10] = Antioxidant activity assessed as inhibition of DPPH free radical after 30 mins by UV-Visible spectrophotometric analysis; assay type: functional
PC-12 [11] = assay: (§1) Neuroprotection against H2O2-induced oxidative damage in rat PC12 cells assessed as reduction in ROS production by measuring mean fluorescence intensity at 2.5 uM preincubated for 4 hrs followed by H2O2 addition measured after 24 hrs by DCFH-DA staining-based flow cytometric analysis (reference value: 102489); assay type: functional
PC-12 [12] = assay: Neuroprotection against H2O2-induced oxidative damage in rat PC12 cells assessed as reduction in ROS production preincubated for 4 hrs followed by H2O2 addition and measured after 24 hrs by DCFH-DA staining-based flow cytometric analysis; assay type: functional, cell-based
in vitro = assay: in vitro; design: dose or concentration left out as unconfirmed; conditions: PAMPA
Description: Effective permeability of the compound at 100 mg/ml incubated for 16 hrs by PAMPA-BBB assay

Homo sapiens [13] = species on record: Homo sapiens; assay: Antiinflammatory activity in […] cells assessed as inhibition of LPS-induced TNF-alpha release preincubated for 1 hr followed by LPS addition measured after 18 hrs by ELISA; assay type: functional, cell-based
Homo sapiens [14] = species on record: Homo sapiens; assay: Neuroprotection against LPS-induced inflammation in […] cells assessed as reduction in ROS production after 18 hrs by DCFH-DA staining-based flow cytometric analysis; assay type: functional, cell-based
PC-12 [15] = assay: Neuroprotection against rotenone-induced cell death in rat PC12 cells preincubated for 4 hrs followed by rotenone addition measured after 24 hrs by MTT assay; assay type: functional, cell-based
Homo sapiens [16] = species on record: Homo sapiens; assay: Neuroprotection against LPS-induced inflammation in […] cells assessed as reduction in nitric oxide production at 10 to 25 uM after 18 hrs by Griess reagent based assay; assay type: functional, cell-based
PC-12 [17] = assay: Neurotoxicity in rat PC12 cells at 30 uM after 24 hrs by MTT assay; assay type: toxicity, cell-based; conditions: pc-12, 24 h
PC-12 [18] = assay: Neuroprotection against H2O2-induced cell death in rat PC12 cells at 6.25 to 25 uM preincubated for 4 hrs followed by H2O2 addition measured after 24 hrs by MTT assay; assay type: functional, cell-based
PC-12 [19] = assay: as §1, with “82616)” for “102489)”; assay type: functional
PC-12 [20] = assay: Neuroprotection against H2O2-induced oxidative damage in rat PC12 cells assessed as viable cells at 10 uM after 24 hrs in presence of H2O2 by annexin V-FITC/propidium iodide staining based flow cytometric analysis (reference value: 63.6%); assay type: functional; conditions: PC-12, 24 h, read-out: Activity
PC-12 [21] = assay: Neuroprotection against H2O2-induced oxidative damage in rat PC12 cells assessed as late apoptotic cells at 10 uM after 24 hrs in presence of H2O2 by annexin V-FITC/propidium iodide staining based flow cytometric analysis (reference value: 29.8%); assay type: functional
PC-12 [22] = assay: Neuroprotection against H2O2-induced oxidative damage in rat PC12 cells assessed as necrotic cells at 2.5 uM after 24 hrs in presence of H2O2 by annexin V-FITC/propidium iodide staining based flow cytometric analysis (reference value: 4.5%); assay type: functional
PC-12 [23] = assay: Neuroprotection against H2O2-induced oxidative damage in rat PC12 cells assessed as intracellular Ca2+ level by measuring mean fluorescence intensity at 2.5 uM after 24 hrs in presence of H2O2 by Fluo-3/AM staining based flow cytometric analysis (reference value: 43156); assay type: functional

| SMILES | Ratio IC50 (Homo sapiens [1]) | Activity [3] | Activity [4] | IC50 [6] | IC50 [7] | Activity (PC-12 [9]) | IC50 [10] | Activity (PC-12 [12]) | Papp at 16 h (in vitro) | inhibition (Homo sapiens [13]) | Activity (Homo sapiens [14]) | Activity (PC-12 [15]) | Activity (Homo sapiens [16]) | Activity (PC-12 [17]) | Activity (PC-12 [18]) | further results |
| --- | --- | --- | --- | --- | --- | --- | --- | --- | --- | --- | --- | --- | --- | --- | --- | --- |
| CC(C)=CCc1c(O)cc(/C=C/c2ccc3c(c2)[C@H](c2cc(O)c(CC=C(C)C)c(O)c2)[C@@H](c2ccc(O)cc2)O3)cc1O | 2.83 | 1.43 equiv | 1.74 equiv | 2.6 µM | 0.92 µM | Dose-dependent effect | 47 µM | Dose-dependent effect | 10.1 ×10⁻⁶ cm/s | Dose-dependent effect | Dose-dependent effect | Dose-dependent effect | Active | Non-Toxic | Active | Activity (PC-12 [2]): 13.1%; Flu intensity [5]: 8220; Activity (PC-12 [8]): 0.7%; Flu intensity (PC-12 [11]): 97612 |
| CC(C)=CCc1c(O)cc(/C=C/c2ccc3c(c2)[C@H](c2cc(O)c4c(c2)OC(C)(C)CC4)[C@@H](c2ccc(O)cc2)O3)cc1O | 2.07 | 1.7 equiv | 1.97 equiv | 8.12 µM | 3.93 µM | Dose-dependent effect | 35.3 µM | Dose-dependent effect | 6.92 ×10⁻⁶ cm/s | Dose-dependent effect | Dose-dependent effect | Dose-dependent effect | Active | Non-Toxic | Active | Flu intensity (PC-12 [19]): 61043; viability at 10 µM (PC-12 [20]): 92.7%; Activity (PC-12 [21]): 4.8%; Activity (PC-12 [22]): 4.8%; Flu intensity (PC-12 [23]): 40869 |
